Data reported in US20220331303A1, “USE OF AN OREXIN 2 RECEPTOR AGONIST FOR THE TREATMENT OF EXCESSIVE SLEEPINESS” (Takeda Pharmaceutical Company Limited, priority 2019, published 2022).
Values joined by “and” are separate entries in the source; they are usually repeats but may differ in a detail not shown here. Identical values can stand only once.

System: sleep-deprived healthy volunteers
Experiment: Maintenance of wakefulness test (MWT) in sleep-deprived healthy volunteers
Format: in vivo, human
Details: for Total Sleep Time LS Mean / Total Sleep Time LS Mean Difference vs Placebo Estimate / Total Wake Time LS Mean / Total Wake Time LS Mean Difference vs Placebo Estimate: M: Modafinil 300 mg; for Duration Total Microsleeps (MWT), LS Mean / Duration Total Microsleeps (MWT), LS Mean Difference vs placebo / Latency to Sleep Onset on MWT, LS Mean / Latency to Sleep Onset on MWT, LS Mean Difference vs placebo / Stage N1 Duration (MWT), LS Mean / Stage N1 Duration (MWT), LS Mean Difference vs placebo / Stage N2 Duration (MWT), LS Mean / Stage N2 Duration (MWT), LS Mean Difference vs placebo / Total Microsleeps (MWT), LS Mean / Total Microsleeps (MWT), LS Mean Difference vs placebo: Modafinil 300 mg (M)
Procedure: The primary objective of this study was to determine the effect of Compound A (methyl (2R,3S)-3-((methylsulfonyl)amino)-2-(((cis-4-phenylcyclohexyl)oxy)methyl)piperidine-1-carboxylate), 44 mg (low dose [LD]) and 112 mg (high dose [HD]), after a single IV dose (compared to placebo) on promoting wakefulness as measured by sleep latency on the MWT (performed at approximately 2, 4, 6, and 8 hours post-dosing starting at approximately 1:00 AM and then at approximate times of 3:00, 5:00, and 7:00 AM) in sleep-deprived healthy volunteers.
This was a phase 1b, single-center, randomized, double-blind, double-dummy, placebo- and active-controlled, 4-period Williams design crossover study to evaluate the PK, PD, and safety of Compound A in sleep-deprived healthy volunteers. Compound A was administered as a 9-hour IV infusion.
Healthy adult male subjects aged 18 to 40 years, inclusive, who satisfied the inclusion and exclusion criteria were enrolled in the trial. On Day 1 of treatment period 1, eligible subjects were equally randomized to 4 treatment sequence groups (sequence 1 to 4) which defined the order of administration for Compound A LD, Compound A HD (both delivered as a 9-hour IV infusion), modafinil 300 mg, and placebo.
During the day before dosing on Day 1, participants were administered the KSS at scheduled timepoints. A practice MWT session was performed on Day 1 treatment period 1 (only once during the entire study) to familiarize subjects with the procedures. Study drug was administered in the clinic in the evening on Day 1 of each treatment period. Subjects underwent the MWT and KSS at specified timepoints after the start of the infusion. Subjects were required to stay awake between the MWT tests. Following completion of the IV infusion on Day 2, subjects underwent an additional MWT test. When the final MWT test and cognitive testing were completed, subjects were allowed to sleep (recovery sleep) for approximately 6 hours. PSG recording was collected during this time. Subjects were discharged from the unit after completion on Day 2 with continuing actigraphy upon discharge (to begin on Day −6 before the next treatment period). The interval between each subsequent treatment period was at least 7 days to ensure that the subject's circadian rhythm had returned to a normal cycle. Subject's vital signs, including BP, were monitored during the dosing and testing period. Blood samples for determination of Compound A plasma concentrations were collected at specified timepoints on Days 1 and 2 of each treatment period. Subjects completed the Columbia-Suicide Severity Rating Scale (C-SSRS) during screening, before study drug administration, and before discharge on Day 2 of each treatment period.
Primary endpoint: Latency for each MWT, defined as time to sleep onset.

[1] = Average Overall, MWT during infusion
[2] = Modafinil 300 mg, after the end of infusion (1 hour post end of infusion)

SMILES: NC(=O)C[S+]([O-])C(c1ccccc1)c1ccccc1 (centres unmarked) [Modafinil, modafinil, reference compound]
- Total Sleep Time LS Mean (2 HOURS POST INFUSION START): 0.88 min
- Total Sleep Time LS Mean Difference vs Placebo Estimate (2 HOURS POST INFUSION START): -1.85 min
- Total Wake Time LS Mean (2 HOURS POST INFUSION START): 34.87 min
- Total Wake Time LS Mean Difference vs Placebo Estimate (2 HOURS POST INFUSION START): 17.15 min
- Total Sleep Time LS Mean (4 HOURS POST INFUSION START): 0.96 min
- Total Sleep Time LS Mean Difference vs Placebo Estimate (4 HOURS POST INFUSION START): -2.19 min
- Total Wake Time LS Mean (4 HOURS POST INFUSION START): 36.45 min
- Total Wake Time LS Mean Difference vs Placebo Estimate (4 HOURS POST INFUSION START): 26.40 min
- Total Sleep Time LS Mean (6 HOURS POST INFUSION START): 1.25 min
- Total Sleep Time LS Mean Difference vs Placebo Estimate (6 HOURS POST INFUSION START): -0.98 min
- Total Wake Time LS Mean (6 HOURS POST INFUSION START): 33.11 min
- Total Wake Time LS Mean Difference vs Placebo Estimate (6 HOURS POST INFUSION START): 26.69 min
- Total Sleep Time LS Mean (8 HOURS POST INFUSION START): 2.35 min
- Total Sleep Time LS Mean Difference vs Placebo Estimate (8 HOURS POST INFUSION START): -0.57 min
- Total Wake Time LS Mean (8 HOURS POST INFUSION START): 22.32 min
- Total Wake Time LS Mean Difference vs Placebo Estimate (8 HOURS POST INFUSION START): 18.67 min
- Total Sleep Time LS Mean [1]: 1.36 min
- Total Sleep Time LS Mean Difference vs Placebo Estimate [1]: -1.40 min
- Total Wake Time LS Mean [1]: 31.69 min
- Total Wake Time LS Mean Difference vs Placebo Estimate [1]: 22.23 min
- Average total wake time (MWT), LS mean difference vs placebo (Modafinil 300 mg): 22.23 min
- Total sleep time (MWT), LS mean difference vs placebo (Modafinil 300 mg): -1.40 min
- Duration Total Microsleeps (MWT), LS Mean (2 hours post infusion start): 5.75 s
- Duration Total Microsleeps (MWT), LS Mean Difference vs placebo (2 hours post infusion start): -3.05 s
- Latency to Sleep Onset on MWT, LS Mean (2 hours post infusion start): 35.57 min
- Latency to Sleep Onset on MWT, LS Mean Difference vs placebo (2 hours post infusion start): 19.89 min
- Stage N1 Duration (MWT), LS Mean (2 hours post infusion start): 0.47 min
- Stage N1 Duration (MWT), LS Mean Difference vs placebo (2 hours post infusion start): -0.68 min
- Stage N2 Duration (MWT), LS Mean (2 hours post infusion start): 0.36 min
- Stage N2 Duration (MWT), LS Mean Difference vs placebo (2 hours post infusion start): -0.49 min
- Total Microsleeps (MWT), LS Mean (2 hours post infusion start): 1.06
- Total Microsleeps (MWT), LS Mean Difference vs placebo (2 hours post infusion start): −0.74
- Duration Total Microsleeps (MWT), LS Mean (4 hours post infusion start): 7.91 s
- Duration Total Microsleeps (MWT), LS Mean Difference vs placebo (4 hours post infusion start): -4.39 s
- Latency to Sleep Onset on MWT, LS Mean (4 hours post infusion start): 35.60 min
- Latency to Sleep Onset on MWT, LS Mean Difference vs placebo (4 hours post infusion start): 26.50 min
- Stage N1 Duration (MWT), LS Mean (4 hours post infusion start): 0.68 min
- Stage N1 Duration (MWT), LS Mean Difference vs placebo (4 hours post infusion start): -0.97 min
- Stage N2 Duration (MWT), LS Mean (4 hours post infusion start): 0.20 min
- Stage N2 Duration (MWT), LS Mean Difference vs placebo (4 hours post infusion start): -0.95 min
- Total Microsleeps (MWT), LS Mean (4 hours post infusion start): 1.27
- Total Microsleeps (MWT), LS Mean Difference vs placebo (4 hours post infusion start): −1.08
- Duration Total Microsleeps (MWT), LS Mean (6 hours post infusion start): 9.70 s
- Duration Total Microsleeps (MWT), LS Mean Difference vs placebo (6 hours post infusion start): 2.30 s
- Latency to Sleep Onset on MWT, LS Mean (6 hours post infusion start): 31.89 min
- Latency to Sleep Onset on MWT, LS Mean Difference vs placebo (6 hours post infusion start): 25.74 min
- Stage N1 Duration (MWT), LS Mean (6 hours post infusion start): 0.84 min
- Stage N1 Duration (MWT), LS Mean Difference vs placebo (6 hours post infusion start): -0.31 min
- Stage N2 Duration (MWT), LS Mean (6 hours post infusion start): 0.20 min
- Stage N2 Duration (MWT), LS Mean Difference vs placebo (6 hours post infusion start): -0.30 min
- Total Microsleeps (MWT), LS Mean (6 hours post infusion start): 1.85
- Total Microsleeps (MWT), LS Mean Difference vs placebo (6 hours post infusion start): 0.60
- Duration Total Microsleeps (MWT), LS Mean (8 hours post infusion start): 12.64 s
- Duration Total Microsleeps (MWT), LS Mean Difference vs placebo (8 hours post infusion start): 4.84 s
- Latency to Sleep Onset on MWT, LS Mean (8 hours post infusion start): 20.44 min
- Latency to Sleep Onset on MWT, LS Mean Difference vs placebo (8 hours post infusion start): 16.91 min
- Stage N1 Duration (MWT), LS Mean (8 hours post infusion start): 1.15 min
- Stage N1 Duration (MWT), LS Mean Difference vs placebo (8 hours post infusion start): 0.00 min
- Stage N2 Duration (MWT), LS Mean (8 hours post infusion start): 0.89 min
- Stage N2 Duration (MWT), LS Mean Difference vs placebo (8 hours post infusion start): -0.21 min
- Total Microsleeps (MWT), LS Mean (8 hours post infusion start): 2.22
- Total Microsleeps (MWT), LS Mean Difference vs placebo (8 hours post infusion start): 0.92
- Duration Total Microsleeps (MWT), LS Mean (average overall): 9.00 s
- Duration Total Microsleeps (MWT), LS Mean Difference vs placebo (average overall): -0.08 s
- Latency to Sleep Onset on MWT, LS Mean (average overall): 30.87 min and 30.87 (1.888) min
- Latency to Sleep Onset on MWT, LS Mean Difference vs placebo (average overall): 22.26 min and 22.3 min and 22.62 min and 22.26 (2.634) min
- Stage N1 Duration (MWT), LS Mean (average overall): 0.79 min
- Stage N1 Duration (MWT), LS Mean Difference vs placebo (average overall): -0.49 min
- Stage N2 Duration (MWT), LS Mean (average overall): 0.41 min
- Stage N2 Duration (MWT), LS Mean Difference vs placebo (average overall): -0.49 min
- Total Microsleeps (MWT), LS Mean (average overall): 1.60
- Total Microsleeps (MWT), LS Mean Difference vs placebo (average overall): −0.08
- Latency to Sleep Onset on MWT, LS Mean (SE) [2]: 21.42 (2.168)
- Latency to Sleep Onset on MWT, LS Mean Difference vs placebo, Estimate (SE) [2]: 16 minutes and 16.77 (2.692) minutes
